Tested on: mononucleosomes
Assay: LANA peptide competition
Type: binding
Experimental: The LANA peptide competition was set up in a similar manner as the peptide pull-down experiments with the following exceptions: SMARCB1-CC (aa 351-385) biotin-labeled peptides at 10 μM in EB150 were bound to Streptavidin Dynabeads® (Pierce™ Streptavidin Magnetic Beads, Thermo Scientific) in parallel to […] of mononucleosomes incubated with LANA peptide (KE Biochem) at varying concentrations ranging from 0-30 μM overnight at 4° C. Beads were washed 3 times in EB150, and resuspended with the mononucleosome/LANA peptide solutions. The suspension was rotated for 3-5 hours at 4° C. The beads were washed 3-5 times in EB150, and eluted in Sample Buffer (2×LDS with 200 mM DTT) to load onto […] Tricine gels.

MAPPGMRLRSGRSTGAPLTRGSC [LANA Peptide]
antagonism of SMARCB1 CC domain-nucleosome interaction in competition experiments: only partially antagonized | changes in SMARCB1 C-terminal domain peptide-nucleosome binding in LANA peptide competition (1-20 uM concentration gradient, visualization of H3): minimal changes

Reference: patent US20220396604A1, “COMPOSITIONS COMPRISING MODIFIED SMARCB1 AND USES THEREOF” (Dana-Farber Cancer Institute, Inc., priority 2019, published 2022)
